Literature values in article PMC11665553, “12-Lipoxygenase inhibition delays onset of autoimmune diabetes in human gene replacement mice” (JCI Insight, 2024).

How the values were obtained:
[1] = set-up: method as in PMID 28842399; conditions: cited from earlier work
NOD mice = test system: NOD mice; set-up: method as in PMID 28842399; conditions: cited from earlier work

CC(=O)NC(c1cccs1)c1cc(Br)c2cccnc2c1O (centres unmarked) [ML127]
Off-target cytotoxicity [1]: evidence of off-target cytotoxicity

CNc1oc(-c2cccc3ccccc23)nc1C#N [ML351]
Effect in NOD mice (NOD mice): reductions in insulitis and improvements in glucose homeostasis
